Experiments:
[1] = target: T1, Amine oxidase [flavin-containing] B (Homo sapiens, UniProt P27338); assay: biochemical; assay type: cell-based, BTI-TN-5B1-4
T1 sequence (P27338 whole entry): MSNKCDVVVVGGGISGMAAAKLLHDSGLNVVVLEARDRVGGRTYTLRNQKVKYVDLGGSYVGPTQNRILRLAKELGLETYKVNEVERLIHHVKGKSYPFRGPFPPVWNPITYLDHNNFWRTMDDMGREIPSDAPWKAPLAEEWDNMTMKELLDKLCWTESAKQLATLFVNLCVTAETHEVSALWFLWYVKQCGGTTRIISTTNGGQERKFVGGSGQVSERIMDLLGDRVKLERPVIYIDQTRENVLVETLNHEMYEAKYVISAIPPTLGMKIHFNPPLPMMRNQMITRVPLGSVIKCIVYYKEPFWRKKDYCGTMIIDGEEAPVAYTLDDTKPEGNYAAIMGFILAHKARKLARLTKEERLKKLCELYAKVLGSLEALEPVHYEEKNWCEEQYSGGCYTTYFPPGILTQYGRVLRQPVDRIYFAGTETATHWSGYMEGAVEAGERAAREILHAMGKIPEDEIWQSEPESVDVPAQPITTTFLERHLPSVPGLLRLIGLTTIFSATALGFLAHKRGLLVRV
Description: Inhibition of human MAO-B expressed in baculovirus infected BTI-TN-5B1-4 cells using p-tyramine as substrate incubated for 15 mins prior to substrate addition measured for 15 mins by Amplex red assay

Homo sapiens = species: Homo sapiens; assay: Selectivity ratio of IC50 for human MAO-A to IC50 for human MAO-B
[2] = target: T2, Amine oxidase [flavin-containing] A (Homo sapiens, UniProt P21397); assay: Inhibition of human MAO-A expressed in baculovirus infected BTI-TN-5B1-4 cells using p-tyramine as substrate at 100 uM incubated for 15 mins prior to substrate addition measured for 15 mins by Amplex red assay
T2 sequence (P21397 whole entry): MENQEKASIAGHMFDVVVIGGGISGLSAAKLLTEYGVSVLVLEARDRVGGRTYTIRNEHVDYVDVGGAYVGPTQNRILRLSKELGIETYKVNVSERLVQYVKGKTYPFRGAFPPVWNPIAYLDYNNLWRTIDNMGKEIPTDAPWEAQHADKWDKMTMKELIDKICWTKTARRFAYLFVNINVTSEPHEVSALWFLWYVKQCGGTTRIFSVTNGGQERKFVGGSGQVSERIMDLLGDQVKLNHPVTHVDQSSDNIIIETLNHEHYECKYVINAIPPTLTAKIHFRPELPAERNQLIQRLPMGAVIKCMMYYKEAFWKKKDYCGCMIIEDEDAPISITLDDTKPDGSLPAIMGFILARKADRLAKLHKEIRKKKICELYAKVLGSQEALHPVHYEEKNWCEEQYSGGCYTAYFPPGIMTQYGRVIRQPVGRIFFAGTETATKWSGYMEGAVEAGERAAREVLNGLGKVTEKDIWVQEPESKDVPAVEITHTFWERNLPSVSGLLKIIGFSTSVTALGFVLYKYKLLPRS

[3] = target: T1, Amine oxidase [flavin-containing] B; assay: Reversible inhibition of human MAO-B expressed in baculovirus infected BTI-TN-5B1-4 cells using p-tyramine as substrate at 70 uM incubated for 30 mins prior to substrate addition followed by 100 fold dilution measured for 15 mins by Amplex red assay; conditions: bti-tn-5b1-4, 0.25 h
[4] = target: T1, Amine oxidase [flavin-containing] B; assay: Reversible inhibition of human MAO-B expressed in baculovirus infected BTI-TN-5B1-4 cells using p-tyramine as substrate at 20 nM incubated for 30 mins prior to substrate addition followed by 100 fold dilution measured for 15 mins by Amplex red assay; conditions: bti-tn-5b1-4, 0.25 h, 0.02 µM
[5] = target: T2, Amine oxidase [flavin-containing] A; assay: Inhibition of human MAO-A expressed in baculovirus infected BTI-TN-5B1-4 cells using p-tyramine as substrate incubated for 15 mins prior to substrate addition measured for 15 mins by Amplex red assay
[6] = target: T1, Amine oxidase [flavin-containing] B; assay: Inhibition of human MAO-B expressed in baculovirus infected BTI-TN-5B1-4 cells using p-tyramine as substrate at 100 uM incubated for 15 mins prior to substrate addition measured for 15 mins by Amplex red assay; conditions: BTI-TN-5B1-4, human, 0.25 h

SMILES | IC50 [1] [µM] | Ratio IC50 (Homo sapiens) | inhibition (INH) ([2]; human, bti-tn-5b1-4, 0.25 h, 100 µM) | inhibition (INH) [3] | inhibition at 100 µM ([2]; BTI-TN-5B1-4, human, 0.25 h) [%] | inhibition (INH) [4] | IC50 [5] [µM] | inhibition at 100 µM [6] [%]
N#Cc1ccc(-c2csc(N/N=C\c3ccncc3)n2)cc1 | 6.75 | > 15 | Not Active | Active |  |  |  | 
Fc1ccc(-c2csc(N/N=C\c3ccco3)n2)c(F)c1 | 0.217 | 42 |  |  |  |  | 9.11 | 
N#Cc1ccc(-c2csc(N/N=C\c3cccs3)n2)cc1 | 0.153 | 294 |  |  |  |  | 45 | 

More lines, now with the values ahead:

IC50 [1] [µM] | Ratio IC50 (Homo sapiens) | inhibition (INH) ([2]; human, bti-tn-5b1-4, 0.25 h, 100 µM) | inhibition (INH) [3] | inhibition at 100 µM ([2]; BTI-TN-5B1-4, human, 0.25 h) [%] | inhibition (INH) [4] | IC50 [5] [µM] | inhibition at 100 µM [6] [%] | SMILES
0.0017 | > 58800 |  |  | 40 | Active |  |  | C/C(=N/Nc1nc(-c2ccc(F)cc2)cs1)c1cccnc1
0.351 | 12 |  |  |  |  | 4.18 |  | C/C(=N/Nc1nc(-c2ccc(F)cc2)cs1)c1ccccc1
 | < 0.03 |  |  |  |  | 3.04 | 40 | C/C(=N/Nc1nc(-c2ccc(F)cc2F)cs1)c1ccccn1
